Consider 22 compounds from patent US10844023B2 (Washington University, priority 2017, dated 2020).

The subject of this test is Mfn2 null MEFs. In words: Mitochondrial elongation (aspect ratio) fusogenicity assay. The format is cell-based, mouse. The following applies: for Aspect ratio (MEAN ± SEM): Mfn2 null MEFs, overnight, treatment with 1 μM compound (footnote); for Fusogenicity Rank: rank order of aspect ratio among 44 soluble library compounds.

Molecules are shown by their SMILES.

For the compound `CC(c1cccc([N+](=O)[O-])c1)N(C)CC(=O)NCCSCc1ccccc1C#N` (centres unmarked) [N-(2-{[(2-cyanophenyl)methyl]sulfanyl}ethyl)-2-{methyl[1-(3-nitrophenyl)ethyl]amino}acetamide], the “Aspect ratio (MEAN ± SEM)” value came to 4.0 ± 0.5 and the “Fusogenicity Rank” value is 16.

In the case of `Cc1cccc(NC(=O)CSCC(=O)N(Cc2ccc(N(C)C)cc2)C(C)C)c1` [N-{[4-(dimethylamino)phenyl]methyl}-2-({[(3-methylphenyl)carbamoyl]methyl}sulfanyl)-N-(propan-2-yl)acetamide], the “Aspect ratio (MEAN ± SEM)” value is given as 4.6 ± 0.2 and the “Fusogenicity Rank” value was found to be 12.

In the case of `Cc1cc(C)n2nc(C(=O)N3C[C@@H]4CCN(Cc5nccn5C)[C@@H]4C3)cc2n1` [drawing 198, 2-{[(3aS,6aS)-5-{5,7-dimethylpyrazolo[1,5-a]pyrimidine-2-carbonyl}-octahydropyrrolo[3,4-b]pyrrol-1-yl]methyl}-1-methyl-1H-imidazole], the “Aspect ratio (MEAN ± SEM)” value was found to be 9.0 ± 3.1 and the “Fusogenicity Rank” value is 1.

Consider `O=C1CC(SCCc2nc3ccccc3[nH]2)C(=O)N1c1cccc(F)c1` (centres unmarked) [drawing 199, 3-{[2-(1H-1,3-benzodiazol-2-yl)ethyl]sulfanyl}-1-(3-fluorophenyl)pyrrolidine-2,5-dione], for which the “Aspect ratio (MEAN ± SEM)” value turned out to be 6.9 ± 0.8 and the “Fusogenicity Rank” value came out at 3.

As for `Cc1ccc(C(C)C)c(OCCCSCc2nc3ccccc3[nH]2)c1` [drawing 200, 2-[({3-[5-methyl-2-(propan-2-yl)phenoxy]propyl}sulfanyl)methyl]-1H-1,3-benzodiazole], the “Aspect ratio (MEAN ± SEM)” value is given as 3.0 ± 0.4 and the “Fusogenicity Rank” value was 37.

For the compound `COc1ccc(SC(C)C(=O)Nc2cc[nH]n2)cc1` (centres unmarked) [drawing 201, 2-[(4-methoxyphenyl)sulfanyl]-N-(1H-pyrazol-3-yl)propanamide], the “Aspect ratio (MEAN ± SEM)” value worked out at 3.8 ± 0.4 and the “Fusogenicity Rank” value came out at 22.

Take `O=C(CSCc1ccc(F)cc1)N1CCc2c([nH]c3ccccc23)C1c1ccc(Cl)cc1` (centres unmarked) [drawing 202, 1-[1-(4-chlorophenyl)-1H,2H,3H,4H,9H-pyrido[3,4-b]indol-2-yl]-2-{[(4-fluorophenyl)methyl]sulfanyl}ethan-1-one]: the “Aspect ratio (MEAN ± SEM)” value was determined as 4.7 ± 0.9 and the “Fusogenicity Rank” value was found to be 11.

Take `CCOC(=O)c1sc(NC(=O)C(CC)Sc2nnc3c(n2)[nH]c2ccccc23)nc1C` (centres unmarked) [drawing 203, ethyl 4-methyl-2-(2-{5H-[1,2,4]triazino[5,6-b]indol-3-ylsulfanyl}butanamido)-1,3-thiazole-5-carboxylate]: the “Aspect ratio (MEAN ± SEM)” value is given as 4.5 ± 0.5 and the “Fusogenicity Rank” value is 13.

As to `CC(C)C1=CC2C(=O)NC(CSCC(=O)NCc3ccccn3)=NC2S1` (centres unmarked) [drawing 204, 2-({[4-oxo-6-(propan-2-yl)-3H,4H,4aH,7aH-thieno[2,3-d]pyrimidin-2-yl]methyl}sulfanyl)-N-[(pyridin-2-yl)methyl]acetamide], the “Aspect ratio (MEAN ± SEM)” value was 3.8 ± 0.6 and the “Fusogenicity Rank” value worked out at 21.

Turning to `O=C(CSCCc1ccccn1)Nc1ccc(Cl)c(Cl)c1` [drawing 205, N-(3,4-dichlorophenyl)-2-{[2-(pyridin-2-yl)ethyl]sulfanyl}acetamide], the “Aspect ratio (MEAN ± SEM)” value was 2.8 ± 0.1 and the “Fusogenicity Rank” value is recorded as 41.

Regarding `Cc1nc[nH]c1CSCCn1cnc2cn(C)nc2c1=O` [drawing 206, 2-methyl-6-(2-{[(4-methyl-1H-imidazol-5-yl)methyl]sulfanyl}ethyl)-2H,6H,7H-pyrazolo[4,3-d]pyrimidin-7-one], the “Aspect ratio (MEAN ± SEM)” value is 2.8 ± 0.2 and the “Fusogenicity Rank” value was 42.

In the case of `Cc1ccc(-c2noc(CSCCCC(=O)Nc3c(C)cccc3C)n2)cc1F` [drawing 209, N-(2,6-dimethylphenyl)-4-({[3-(3-fluoro-4-methylphenyl)-1,2,4-oxadiazol-5-yl]methyl}sulfanyl)butanamide], the “Aspect ratio (MEAN ± SEM)” value is reported as 3.9 ± 0.5 and the “Fusogenicity Rank” value was 20.

As to `COc1ccc2c(c1)C1(SCCN1C(=O)c1ccccc1C)C(=O)N2Cc1cccc(C(F)(F)F)c1` (centres unmarked) [drawing 210, 5-methoxy-3′-(2-methylbenzoyl)-1-{[3-(trifluoromethyl)phenyl]methyl}-1,2-dihydrospiro[indole-3,2′-[1,3]thiazolidine]-2-one], the “Aspect ratio (MEAN ± SEM)” value is given as 3.5 ± 0.6 and the “Fusogenicity Rank” value is recorded as 26.

On to `Cc1cccc(C)c1NC(=O)CCCSCc1ncc(C(C)C)o1` [drawing 211, N-(2,6-dimethylphenyl)-4-({[5-(propan-2-yl)-1,3-oxazol-2-yl]methyl}sulfanyl)butanamide], for which the “Aspect ratio (MEAN ± SEM)” value is listed as 3.5 ± 0.1 and the “Fusogenicity Rank” value was 25.

With `Cc1ccc2c(c1)SC(C(=O)NCc1ccc(N3CCCN(C)CC3)nc1)C2` (centres unmarked) [drawing 212, 6-methyl-N-{[6-(4-methyl-1,4-diazepan-1-yl)pyridin-3-yl]methyl}-2,3-dihydro-1-benzothiophene-2-carboxamide], the “Aspect ratio (MEAN ± SEM)” value is 4.0 ± 0.3 and the “Fusogenicity Rank” value was found to be 18.

`O=C(NCCSCc1ccc(Br)s1)C1CCCN(C(=O)c2cccs2)C1` (centres unmarked) [drawing 213, N-(2-{[(5-bromothiophen-2-yl)methyl]sulfanyl}ethyl)-1-(thiophene-2-carbonyl)piperidine-3-carboxamide]: the “Aspect ratio (MEAN ± SEM)” value was found to be 5.1 ± 0.2 and the “Fusogenicity Rank” value is reported as 9.

Consider `Cc1ccc(-n2nnnc2SC(C)c2nc(-c3nnc[nH]3)no2)cc1` (centres unmarked) [drawing 215, 1-(4-methylphenyl)-5-({1-[3-(4H-1,2,4-triazol-3-yl)-1,2,4-oxadiazol-5-yl]ethyl}sulfanyl)-1H-1,2,3,4-tetrazole], for which the “Aspect ratio (MEAN ± SEM)” value came out at 3.4 ± 0.3 and the “Fusogenicity Rank” value stood at 27.

`Cc1nnc(SCCCNC(=O)c2n[nH]c3c2CN(C)CC3)s1` [drawing 216, 5-methyl-N-{3-[(5-methyl-1,3,4-thiadiazol-2-yl)sulfanyl]propyl}-1H,4H,5H,6H,7H-pyrazolo[4,3-c]pyridine-3-carboxamide]: the “Aspect ratio (MEAN ± SEM)” value is listed as 3.1 ± 0.3 and the “Fusogenicity Rank” value is given as 34.

For the compound `O=C(NCCSCc1ccccc1)C1CCCCO1` (centres unmarked) [drawing 218, N-[2-(benzylsulfanyl)ethyl]oxane-2-carboxamide], the “Aspect ratio (MEAN ± SEM)” value came to 3.3 ± 0.4 and the “Fusogenicity Rank” value is 30.

Turning to `Cc1nc[nH]c1CSCCNC(=O)C1CCN(C(=O)C2CCC2)CC1` [drawing 220, 1-cyclobutanecarbonyl-N-(2-{[(4-methyl-1H-imidazol-5-yl)methyl]sulfanyl}ethyl)piperidine-4-carboxamide], the “Aspect ratio (MEAN ± SEM)” value is recorded as 2.9 ± 0.5 and the “Fusogenicity Rank” value was 40.

For the compound `O=C(NCCSCc1cccc(Cl)c1)C1CCCCn2nnnc21` (centres unmarked) [drawing 222, N-(2-{[(3-chlorophenyl)methyl]sulfanyl}ethyl)-5H,6H,7H,8H,9H-[1,2,3,4]tetrazolo[1,5-a]azepine-9-carboxamide], the “Aspect ratio (MEAN ± SEM)” value is 2.9 ± 0.2 and the “Fusogenicity Rank” value is reported as 38.

As to `CC(Sc1nnc(N2CCOCC2)n1Cc1ccccc1)C(=O)Nc1ccc2[nH]c(=O)[nH]c2c1` (centres unmarked) [drawing 223, 2-{[4-benzyl-5-(morpholin-4-yl)-4H-1,2,4-triazol-3-yl]sulfanyl}-N-(2-oxo-2,3-dihydro-1H-1,3-benzodiazol-5-yl)propanamide], the “Aspect ratio (MEAN ± SEM)” value was determined as 5.2 ± 0.2 and the “Fusogenicity Rank” value worked out at 8.
